# Experimental data: patent US12077503B2, “Substituted cyclic amides and their use as herbicides” (FMC CORPORATION, priority 2015, dated 2024)
# How the values were obtained:
# Assay type in all cases: in vivo
# [1] = test system: ryegrass, Italian (Italian ryegrass, Lolium multiflorum); test: Test A preemergence
# Method in brief: (§1)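 Visual injury, scored on a 0–100 scale relative to untreated controls, was recorded about 10 d after application. Treatments were a preemergence soil spray over planted seeds or a postemergence spray on plants at the one- to two-leaf stage, 2 to 10 cm tall, all in loam soil–sand blend in the greenhouse.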
# [2] = test system: pigweed (Amaranthus retroflexus); test: Test A preemergence
# Kochia (Kochia scoparia) [3] = test: Test A preemergence
# Method in brief: as §1
# [4] = test system: barnyardgrass (Echinochloa crus-galli); test: Test A preemergence
# Method in brief: as §1
# [5] = test system: giant foxtail (Setaria faberii); test: Test A preemergence
# Method in brief: as §1
# [6] = test system: ragweed (common ragweed, Ambrosia elatior); test: Test A preemergence
# Method in brief: as §1
# [7] = test system: ducksalad (Heteranthera limosa); test: Test B flooded paddy test; conditions: Flood, 250 g ai/ha; 0 to 100 scale where 0 is no effect and 100 is complete control; 13 to 15 d
# Method in brief: (§2)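 Response scored visually against untreated controls, 0 = no effect and 100 = complete control, 13–15 d after treatment in the greenhouse. Compounds added to paddy water held 3 cm above soil surface. Treatment given at 2-leaf stage.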
# rice (Oryra sativa) = test: Test B flooded paddy test; conditions: Flood, 250 g ai/ha; 0 to 100 scale where 0 is no effect and 100 is complete control; 13 to 15 d
# Method in brief: as §2
# [8] = test system: barnyardgrass (Echinochloa crus-galli); test: Test B flooded paddy test; conditions: Flood, 250 g ai/ha; 0 to 100 scale where 0 is no effect and 100 is complete control; 13 to 15 d
# Method in brief: as §2
# [9] = test system: sedge, umbrella (small-flower umbrella sedge, Cyperus difformis); test: Test B flooded paddy test; conditions: Flood, 250 g ai/ha; 0 to 100 scale where 0 is no effect and 100 is complete control; 13 to 15 d
# Method in brief: as §2
# [10] = test system: waterhemp (common waterhemp, Amaranthus rudis); test: Test C preemergence; conditions: for Plant response rating (scale of 0 to 100), Waterhemp: 31 g ai/ha, 0 is no effect, 100 is complete control; for Plant response rating, Waterhemp: scale 0 to 100, 0 no effect, 100 complete control
# Method in brief: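 Visual 0 (no effect) to 100 (complete control) ratings versus controls, taken 13–15 d after treatment in the greenhouse; dash means no result. Compounds in a surfactant-containing non-phytotoxic solvent blend were applied preemergence to seeds in loam-sand soil or postemergence to 1- to 4-leaf plants (2–18 cm) in peat-based medium.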
# corn (Zea mays) = test: Test A postemergence
# Method in brief: as §1
# [11] = test system: wheat (Triticum aestivum); test: Test A postemergence
# Method in brief: as §1
# [12] = test system: ryegrass, Italian (Italian ryegrass, Lolium multiflorum); test: Test A postemergence
# Method in brief: as §1
# [13] = test system: Galium (catchweed bedstraw, Galium aparine); test: Test A postemergence
# Method in brief: as §1
# [14] = test system: pigweed (Amaranthus retroflexus); test: Test A postemergence
# Method in brief: as §1
# Kochia (Kochia scoparia) [15] = test: Test A postemergence
# Method in brief: as §1
# [16] = test system: blackgrass (Alopecurus myosuroides); test: Test A postemergence
# Method in brief: as §1
# [17] = test system: barnyardgrass (Echinochloa crus-galli); test: Test A postemergence
# Method in brief: as §1
# [18] = test system: giant foxtail (Setaria faberii); test: Test A postemergence
# Method in brief: as §1
# [19] = test system: ragweed (common ragweed, Ambrosia elatior); test: Test A postemergence
# Method in brief: as §1
# [20] = 125 g ai/ha, Preemergence, visual injury after approximately 10 d, 0 to 100 scale where 0 is no effect and 100 is complete control
# [21] = 500 g ai/ha, preemergence, 0 to 100 scale, 0 = no effect, 100 = complete control
# [22] = 125 g ai/ha, postemergence, visual rating after approx. 10 d, 0 to 100 scale (0 no effect, 100 complete control)
# [23] = Postemergence, 500 g ai/ha, 0 to 100 scale where 0 is no effect and 100 is complete control
# [24] = 125 g ai/ha, preemergence, 0 to 100 scale (0 no effect, 100 complete control)
# [25] = Preemergence, 500 g ai/ha, visual injury approx. 10 d
# [26] = 125 g ai/ha, postemergence, visual injury rating on 0 to 100 scale (0 no effect, 100 complete control), approx. 10 d
# [27] = 500 g ai/ha, postemergence, 0 to 100 scale, 0 no effect, 100 complete control
# [28] = 500 g ai/ha, postemergence, visual injury, 0 to 100 scale (0 no effect, 100 complete control), approx. 10 d
compound,measurement,setting,value
CN1CC(c2cccc(OC(F)F)c2)C(C(=O)Nc2cccc(F)c2F)C1=O (stereo not shown) [Compound 616],"Plant response rating, Ryegrass, Italian",[1]; [20],80
same,"Plant response rating, Ryegrass, Italian",[1]; [21],90
same,"Plant response rating, Pigweed",[2]; [20],80
same,"Plant response rating, Pigweed",[2]; [21],90
same,"Plant response rating, Kochia",Kochia (Kochia scoparia) [3]; [20],70
same,"Plant response rating, Kochia",Kochia (Kochia scoparia) [3]; [21],80
same,"Plant response rating, Barnyardgrass",[4]; [20],90
same,"Plant response rating, Barnyardgrass",[4]; [21],90
same,"Plant response rating, Foxtail, Giant",[5]; [20],90
same,"Plant response rating, Foxtail, Giant",[5]; [21],100
same,"Plant response rating, Ragweed",[6]; [20],80
same,"Plant response rating, Ragweed",[6]; [21],80
same,"Plant response rating, Ducksalad",[7],100
same,"Plant response rating, Rice",rice (Oryra sativa),10
same,"Plant response rating, Barnyardgrass",[8],70
same,"Plant response rating, Sedge, Umbrella",[9],0
same,"Plant response rating (scale of 0 to 100), Waterhemp",[10],50
same,"Plant response rating, Waterhemp",[10]; 62 g ai/ha,80
same,"Plant response rating, Waterhemp",[10]; 125 g ai/ha,85
same,"Plant response rating, Waterhemp",[10]; 250 g ai/ha,85
same,"Plant response rating, Corn",corn (Zea mays); [22],70
same,"Plant response rating, Corn",corn (Zea mays); [23],80
same,"Plant response rating, Wheat",[11]; [22],60
same,"Plant response rating, Wheat",[11]; [23],70
same,"Plant response rating, Ryegrass, Italian",[12]; [22],50
same,"Plant response rating, Ryegrass, Italian",[12]; [23],80
same,"Plant response rating, Galium",[13]; [22],60
same,"Plant response rating, Galium",[13]; [23],70
same,"Plant response rating, Pigweed",[14]; [22],40
same,"Plant response rating, Pigweed",[14]; [23],60
same,"Plant response rating, Kochia",Kochia (Kochia scoparia) [15]; [22],50
same,"Plant response rating, Kochia",Kochia (Kochia scoparia) [15]; [23],70
same,"Plant response rating, Blackgrass",[16]; [22],50
same,"Plant response rating, Blackgrass",[16]; [23],60
same,"Plant response rating, Barnyardgrass",[17]; [22],90
same,"Plant response rating, Barnyardgrass",[17]; [23],90
same,"Plant response rating, Foxtail, Giant",[18]; [22],90
same,"Plant response rating, Foxtail, Giant",[18]; [23],90
same,"Plant response rating, Ragweed",[19]; [22],0
same,"Plant response rating, Ragweed",[19]; [23],20
CN1CC(c2cccc(OC(F)(F)C(F)F)c2)C(C(=O)Nc2ccc(F)c(F)c2F)C1=O (stereo not shown) [Compound 429],"Plant response rating, Ryegrass, Italian",[1]; [24],70
same,"Ryegrass, Italian plant response rating (0 to 100 scale, 0 is no effect, 100 is complete control)",[1]; [25],80
same,"Plant response rating, Pigweed",[2]; [24],80
same,"Pigweed plant response rating (0 to 100 scale, 0 is no effect, 100 is complete control)",[2]; [25],80
same,"Plant response rating, Kochia",Kochia (Kochia scoparia) [3]; [24],70
same,"Kochia plant response rating (0 to 100 scale, 0 is no effect, 100 is complete control)",Kochia (Kochia scoparia) [3]; [25],80
same,"Plant response rating, Barnyardgrass",[4]; [24],90
same,"Barnyardgrass plant response rating (0 to 100 scale, 0 is no effect, 100 is complete control)",[4]; [25],90
same,"Plant response rating, Foxtail, Giant",[5]; [24],90
same,"Foxtail, Giant plant response rating (0 to 100 scale, 0 is no effect, 100 is complete control)",[5]; [25],100
same,"Plant response rating, Ragweed",[6]; [24],50
same,"Plant response rating, Ducksalad",[7],100
same,"Plant response rating, Rice",rice (Oryra sativa),15
same,"Plant response rating, Barnyardgrass",[8],65
same,"Plant response rating, Sedge, Umbrella",[9],0
same,"Plant response rating, Waterhemp",[10]; 62 g ai/ha,85
same,"Plant response rating, Waterhemp",[10]; 125 g ai/ha,90
same,"Plant response rating, Waterhemp",[10]; 250 g ai/ha,90
same,Corn plant response rating,corn (Zea mays); [26],70
same,"Plant response rating, Corn",corn (Zea mays); [27],80
same,Wheat plant response rating,[11]; [26],50
same,"Plant response rating, Wheat",[11]; [27],60
same,"Ryegrass, Italian plant response rating",[12]; [26],60
same,"Plant response rating, Ryegrass, Italian",[12]; [27],80
same,Galium plant response rating,[13]; [26],70
same,"Plant response rating, Galium",[13]; [27],70
same,Pigweed plant response rating,[14]; [26],70
same,"Plant response rating, Pigweed",[14]; [27],80
same,Kochia plant response rating,Kochia (Kochia scoparia) [15]; [26],60
same,"Plant response rating, Kochia",Kochia (Kochia scoparia) [15]; [27],70
same,Blackgrass plant response rating,[16]; [26],50
same,"Plant response rating, Blackgrass",[16]; [27],70
same,Barnyardgrass plant response rating,[17]; [26],90
same,"Plant response rating, Barnyardgrass",[17]; [27],90
same,"Foxtail, Giant plant response rating",[18]; [26],90
same,"Plant response rating, Foxtail, Giant",[18]; [27],90
same,Ragweed plant response rating,[19]; [26],30
same,"Plant response rating, Ragweed",[19]; [27],50
CN1CC(c2ccc(F)c(F)c2)C(C(=O)Nc2ccccc2C(F)(F)F)C1=O (stereo not shown) [Compound 641],"Plant response rating, Ryegrass, Italian",[1]; [20],20
same,"Plant response rating, Ryegrass, Italian",[1]; [21],60
same,"Plant response rating, Pigweed",[2]; [20],20
same,"Plant response rating, Pigweed",[2]; [21],50
same,"Plant response rating, Kochia",Kochia (Kochia scoparia) [3]; [20],20
same,"Plant response rating, Kochia",Kochia (Kochia scoparia) [3]; [21],50
same,"Plant response rating, Barnyardgrass",[4]; [20],90
same,"Plant response rating, Barnyardgrass",[4]; [21],0
same,"Plant response rating, Foxtail, Giant",[5]; [20],90
same,"Plant response rating, Foxtail, Giant",[5]; [21],100
same,"Plant response rating, Ragweed",[6]; [20],0
same,"Plant response rating, Ragweed",[6]; [21],60
same,"Plant response rating, Ducksalad",[7],100
same,"Plant response rating, Rice",rice (Oryra sativa),0
same,"Plant response rating, Barnyardgrass",[8],70
same,"Plant response rating, Sedge, Umbrella",[9],0
same,"Plant response rating (scale of 0 to 100), Waterhemp",[10],0
same,"Plant response rating, Waterhemp",[10]; 62 g ai/ha,0
same,"Plant response rating, Waterhemp",[10]; 125 g ai/ha,45
same,"Plant response rating, Waterhemp",[10]; 250 g ai/ha,70
same,"Plant response rating, Corn",corn (Zea mays); [22],0
same,"Plant response rating, Corn",corn (Zea mays); [28],50
same,"Plant response rating, Wheat",[11]; [22],0
same,"Plant response rating, Wheat",[11]; [28],30
same,"Plant response rating, Ryegrass, Italian",[12]; [22],0
same,"Plant response rating, Ryegrass, Italian",[12]; [28],40
same,"Plant response rating, Galium",[13]; [22],40
same,"Plant response rating, Galium",[13]; [28],50
same,"Plant response rating, Pigweed",[14]; [22],0
same,"Plant response rating, Pigweed",[14]; [28],20
same,"Plant response rating, Kochia",Kochia (Kochia scoparia) [15]; [22],0
same,"Plant response rating, Kochia",Kochia (Kochia scoparia) [15]; [28],20
same,"Plant response rating, Blackgrass",[16]; [22],30
same,"Plant response rating, Blackgrass",[16]; [28],60
same,"Plant response rating, Barnyardgrass",[17]; [22],90
same,"Plant response rating, Barnyardgrass",[17]; [28],90
same,"Plant response rating, Foxtail, Giant",[18]; [22],90
same,"Plant response rating, Foxtail, Giant",[18]; [28],90
same,"Plant response rating, Ragweed",[19]; [22],0
same,"Plant response rating, Ragweed",[19]; [28],20
